# Experimental data: patent US9567636B2, “Use of HLA-B*1301 allele” (Shandong Provincial Institute of Dermatology and Venereology, priority 2012, dated 2017)
# Read-outs that look alike come from different tables or passages of the source.
# Key:
# HLA-B*1301 allele [1] = details: human, in vivo
# Experimental: To further verify the correlation of HLA-B*1301 allele, the 454 sequencing platform (Genome Sequencer FLX system developed by Roche 454 Life Sciences) was employed to conduct HLA sorting on another 37 DHS patients in the case samples and another 201 non-DHS patients in the clinical control samples (randomizedly selected from a total of 1089 validation controls). Wherein, PCR amplification was conducted on genomic DNA isolated from the peripheral blood of the samples for the HLA-B*1301 allele using primer pair 1 and primer pair 2, respectively. The primer pair 1 consists of the single-stranded DNA as set forth in SEQ ID No.1 and SEQ ID No.2; and the primer pair 2 consists of the single-stranded DNA as set forth in SEQ ID No.3 and SEQ ID No.4.
# HLA-B*1301 allele [2] = details: human, in vivo; remark: listed apart in the source
# From the text: The 454 sequencing platform (Genome Sequencer FLX system developed by Roche 454 Life Sciences) was employed to conduct HLA sorting on 76 DHS patients in the case samples and 1034 non-DHS patients in the clinical control samples, and the sorting results are shown in Table 1.
# The HLA-B*1301 heterozygous carriers were at a risk of DHS of ORhet=61×886/10×144=37.53 (confidence level, 0.95; confidence interval (18.80, 74.94)); the HLA-B*1301 homozygous carriers were at a risk of DHS of ORhom=5×886/10×4=110.75 (confidence level, 0.95; confidence interval (25.85, 474.54)).
# A recent review regarding the Asian population deduced that the prevalence rate of DHS was 1.4% (Lorenz, Wozel et al. 2012). Based on this prevalence rate, the positive predictive value was 7.9%, the negative predictive value was 99.8%, the positive likelihood ratio was 6.07, and the negative likelihood ratio was 0.1536, upon calculation. According to the positive likelihood ratio of 6.07, the risk of DHS in individuals with the HLA-B*1301 will be raised to 7.9%; and according to the negative likelihood ratio of 0.1536, the incidence of DHS in individuals […] will be decreased from 1.4% to 0.2%.
# [3] = both, human, in vivo
# From the text: 76 Chinese DHS patients (39 for the discovery-phase study, and 37 for the validation-phase study) were included in the study. […] The diagnosis of DHS was based on the medical history, clinical manifestations and laboratory examinations of the patients.
# HLA-B*1301 allele [4] = details: both, human, in vivo
# From the text: The samples were peripheral blood taken from human, including case samples, clinical control samples and healthy control samples.
# 76 Chinese DHS patients (39 for the discovery-phase study, and 37 for the validation-phase study) were included in the study. […] The male-to-female ratio in the patients, aged 38 years old in average, was 1.6:1. […] The diagnosis of DHS was based on the medical history, clinical manifestations and laboratory examinations of the patients.
# The clinical control samples of the study included 1034 non-DHS patients (833 for the discovery phase, and 201 for the validation phase).
# Genotyping was performed on 39 DHS patients in the case samples and 833 non-DHS patients in the clinical control samples using Illumina-660 chip (Illumina Human 660W-Quad beadchip). A total of 430,276 SNPs from the 39 DHS patients and 833 non-DHS patients were used in data analysis in the discovery phase of Genome-Wide Scan. […]
smiles,measurement,setting,value
"Nc1ccc(S(=O)(=O)c2ccc(N)cc2)cc1 [DDS, 4,4′-diamino diphenyl sulfone]",OR of DHS for HLA-B*1301,HLA-B*1301 allele [1],23.54
same,HLA-B*1301 allele carried by DHS patients,HLA-B*1301 allele [2],86.8%
same,HLA-B*1301 allele carried by non-DHS patients,HLA-B*1301 allele [2],14.3%
same,risk of DHS in individuals with the HLA-B*1301,HLA-B*1301 allele [2],7.9%
same,patients abnormally increased in the level of serum bilirubin,[3],35 patients
same,patients decreased in the level of hemoglobin,[3],37 patients
same,patients significantly increased in the level of alanine transaminase,[3],58 patients
same,patients significantly increased in the level of aspartate aminotransferase,[3],49 patients
same,skin lesion: exfoliative dermatitis,[3],38.5%
same,skin lesion: maculopapule,[3],57.7%
same,skin lesion: scarlatiniform erythema,[3],7.7%
same,system involvement: abnormal liver function,[3],74.4%
same,system involvement: fever,[3],83.1%
same,system involvement: swollen lymph glands,[3],34.6%
same,skin lesion: oral erosion,[3]; po,1.3%
same,OR of DHS for HLA-B*1301,HLA-B*1301 allele [4],21.67
